According to patent publication US8609698B2, “Substituted dipyridyl-dihydropyrazolones and use thereof” (Bayer Intellectual Property GmbH, priority 2006, dated 2013):
Structures can show the parent of a compound that is named as a salt.

Target: HIF prolyl hydroxylase
Assay: Inhibition of the activity of HIF prolyl hydroxylase (VBC complex binding test)
Assay type: biochemical
From the text: 1. In Vitro Tests for Determination of the Activity and Selectivity of HIF Prolyl 4-Hydroxylase Inhibitors 1.a) Inhibition of the Activity of HIF Prolyl Hydroxylase:
Hydroxylated HIF bonds specifically to the von Hippel-Lindau protein-elongin B-elongin C complex (VBC complex). This interaction occurs only if HIF is hydroxylated on a conserved prolyl radical. It is the basis for the biochemical determination of HIF prolyl hydroxylase activity.
A clear 96-well microtiter plate coated with NeutrAvidin HBC (Pierce) is incubated with blocker casein for 30 minutes. The plate is then washed three times with 200 μl each time of wash buffer (50 mM Tris, pH 7.5, 100 mM NaCl, 10% (v/v) blocker casein, 0.05% (v/v) Tween 20) per well. […] This peptide serves as a substrate for the prolyl hydroxylation and is bonded to the microtiter plate. After incubation for 60 minutes, the plate is washed three times with wash buffer, incubated with 1 mM biotin in blocker casein for 30 minutes and then washed again three times with wash buffer.
To carry out the prolyl hydroxylase reaction, the peptide substrate bonded to the plate is incubated with a cell lysate containing prolyl hydroxylase for 1 to 60 minutes. The reaction takes place in 100 μl reaction buffer (20 mM Tris, pH 7.5, 5 mM KCl, 1.5 mM MgCl2, 1 μM-1 mM 2-oxoglutarate, 10 μM FeSO4, 2 mM ascorbate) at room temperature. The reaction mixture moreover contains various concentrations of the prolyl hydroxylase inhibitor to be tested. The test substance is preferably, but not exclusively, employed at concentrations of between 1 nM and 100 μM. The reaction is stopped by washing the plate three times with wash buffer.
For quantitative determination of the prolyl hydroxylation, a fusion protein which contains both thioredoxin from E. coli and the VBC complex in 80 μl bonding buffer (50 mM Tris, pH 7.5, 120 mM NaCl) is added. After 15 minutes, 10 μl of a solution of polyclonal anti-thioredoxin antibodies from rabbit in bonding buffer are added. After a further 30 minutes, 10 μl of a solution of anti-rabbit immunoglobulin coupled to horseradish peroxidase in bonding buffer are added. After incubation at room temperature for 30 minutes, the plate is washed three times with wash buffer in order to remove non-bonded VBC complex and antibodies. To determine the amount of bonded VBC complex, the plate is incubated with TMB for 15 minutes. The color reaction is ended by addition of 100 μl 1 M sulfuric acid. The amount of bonded VBC complex is determined by measurement of the optical density at 450 nm. It is proportional to the amount of hydroxylated proline in the peptide substrate.
Alternatively, a VBC complex coupled to europium (Perkin Elmer) can be used for detection of the prolyl hydroxylation. In this case, the amount of bonded VBC complex is determined by the fluorescence with respect to time. The use of VBC complex labeled with [^35S]-methionine is moreover possible. For this, the radioactively labeled VBC complex can be prepared by in vitro transcription-translation in reticulocyte lysate.

SMILES | IC50 [nM]
COCCNCc1ccc(-n2[nH]cc(-c3cccnc3)c2=O)nc1 [Example 5, 2-(5-{[(2-Methoxyethyl)amino]methyl}pyridin-2-yl)-4-pyridin-3-yl-1,2-dihydro-3H-pyrazol-3-one hydrochloride] | 6300
Cc1ccnc(-n2[nH]cc(-c3cncc(C#N)c3)c2=O)c1 [Example 8, 5-[2-(4-Methylpyridin-2-yl)-3-oxo-2,3-dihydro-1H-pyrazol-4-yl]pyridine-3-carbonitrile hydrochloride] | 5200
O=c1c(-c2cccnc2)c[nH]n1-c1ccc(Cn2cccc2)cn1 [Example 22, 4-Pyridin-3-yl-2-[5-(1H-pyrrol-1-ylmethyl)pyridin-2-yl]-1,2-dihydro-3H-pyrazol-3-one hydrochloride] | 3240

The next molecules have a lower IC50 than those just listed; values first:

IC50 [nM] | SMILES
260 | O=C(O)c1ccc(-n2[nH]cc(-c3cncc(Br)c3)c2=O)nc1 [Example 10, 6-[4-(5-Bromopyridin-3-yl)-5-oxo-2,5-dihydro-H-pyrazol-1-yl]pyridine-3-carboxylic acid hydrochloride]
910 | CC(C)(C)NC(=O)c1ccc(-n2[nH]cc(-c3cccnc3)c2=O)nc1 [Example 18, N-tert-Butyl-6-(5-oxo-4-pyridin-3-yl-2,5-dihydro-1H-pyrazol-1-yl)pyridine-3-carboxamide hydrochloride]
900 | O=C(NCc1ccnc(-n2[nH]cc(-c3cccnc3)c2=O)c1)Nc1c(Cl)cccc1Cl [Example 65]
1600 | Cc1ccccc1NC(=O)OCc1ccc(-n2[nH]cc(-c3cccnc3)c2=O)nc1 [Example 80]
